{
  "source": "patent US10632106B2",
  "about": "“Methods of cancer treatment with 2-(1′H-Indole-3′-carbonyl)-thiazole-4-carboxylic acid methyl ester” (Ariagen, Inc., priority 2009, dated 2020)",
  "test_system": "human liver cancer cell line HepG2 xenografts",
  "assay": "HepG2 xenograft growth inhibition in nude mice",
  "type": "in vivo",
  "conditions": "80 mg/kg i.p. once daily",
  "description": "All the procedures related to animal handling, care, and the treatment in the study were performed following guidelines approved by an Institutional Animal Care and Use Committee (IACUC) of Crown Bioscience, Inc. (Santa Clara, Calif., USA, a contract research organization we hired) based on the guidance of the Association for Assessment and Accreditation of Laboratory Animal Care (AAALAC). Animals were checked for any effects of tumor growth and drug treatment on normal behavior such as mobility, food and water consumption, body weight gain/loss (gross body weights were measured twice weekly), eye/hair matting, and any other abnormal effect. Death and observed clinical signs were recorded on the basis of the number of animals within each group. Individual animals with a tumor volume exceeding 3,000 mm^3 or animals of a group with a mean tumor volume exceeding 2,000 mm^3 were euthanized. In addition, animals showing signs of severe distress and/or pain, dropping body weight more than 20% from that at the start of treatment, or losing the capability of accessing adequate food or water were humanely sacrificed.\nEach mouse was inoculated subcutaneously at the right flank with the LNCaP cells (1×10^7) in 0.1 ml of PBS for tumor development. When a mean tumor volume reached around 150 mm^3, the tumor-bearing mice were divided into homogeneous blocks based on their tumor volumes followed by a randomization of mice in each block into treatment groups (thus minimizing variations in tumor response to treatments due to the differential in initial mean tumor volumes). Each treatment group was consisted of 8 tumor-bearing mice. Vehicle (DMSO) or ITE in the vehicle at specified doses were administered to the mice by either i.p. (intraperitoneal) or p.o. (oral) injection once or twice daily for 28 continuous days as indicated.\nTumor volume was measured twice weekly in two dimensions using a caliper and the volume was calculated with a formula of: V=0.5 a×b^2, where a and b are the long and short diameter (in mm) of a tumor, respectively. The tumor volume was then used for calculations of both TGI (Tumor Growth Inhibition) and TGD (Tumor Growth Delay). The TGI was determined by: TGI=ΔT/ΔC×100%, where ΔT was a difference between the mean tumor volume at a specified day of observation and that at the day treatment starts (day 1) for a drug treated group whereas ΔC was the same difference measured for the control group. The TGD was calculated as: TGD=T−C, where T was the time (in days) required for tumors in a drug treated group to reach a predetermined mean tumor volume and C the time (in days) in the control group to reach the same volume. A tumor weight was derived by equating 1,000 mm^3 in volume to 1,000 mg in weight. A net body weight was then derived by subtracting a tumor weight from a corresponding gross body weight with the tumor.\nSummary statistics, including mean and the standard error of the mean (SEM), are provided for the tumor volume of each group at each time point. Statistical analysis of difference in tumor volume among groups was conducted on a data set either at the best therapeutic time point or at the final dosing day as indicated. The tumor volume data were log-transformed and evaluated using a one-way ANOVA followed by Tukey's test when significance was observed. All data were analyzed using SPSS 16.0 and p<0.05 was considered to be statistically significant.\nThe culture and inoculation of human prostate cancer cell line LNCaP were as described in Example 1. The manipulation for human liver cancer cell line HepG2 (ATCC) was similar as that for LNCaP except that DMEM (instead of RPMI-1640) medium was used, the L-glutamine was not used, and 2×10^6 cells were used for inoculation into female nude mice. The handling of human ovarian cancer cell line OVCAR-3 (ATCC) was the same as that of LNCaP except that the DMEM medium was used and 5×10^6 cells were used for inoculation into female nude mice. […]",
  "data": [
    {"smiles": "COC(=O)c1csc(C(=O)c2c[nH]c3ccccc23)n1", "note": "[ITE, 2-(1′H-indole-3′-carbonyl)-thiazole-4-carboxylic acid methyl ester]", "values": [
      {"measurement": "net body weight loss", "result": "no obvious net body weight loss"},
      {"measurement": "TGD (Tumor Growth Delay)", "setting": "at a tumor volume of 800 mm^3", "result": 29, "unit": "days"},
      {"measurement": "TGI (Tumor Growth Inhibition)", "setting": "day 22, TGI=ΔT/ΔC×100%", "result": 25, "unit": "%"}
    ]}
  ]
}
